Results on two compounds are retold here after patent US20250204541A1, “GAS PHASE TREATMENT OF PRODUCE” (priority 2022, published 2025).

Each structure is given as a SMILES string.

Assay type in all cases: in vivo
The subject of one data set is grapes. The experiment in a line: Visible appearance of vapor-treated grapes. As for the experimental part: (§1) Example 12. The antifungal activity of AITC and DADS vapor against Botrytis cinerea (Bc) in grapes was tested. All samples were wounded by making a 3 mm deep puncture in the skin. Samples were infected by dispensing 1000 Bc spores suspended in 10 μL of water in the wound. The test groups consisted of grapes that were: uninfected and untreated; infected and untreated; exposed to the vapor of 3 mL of AITC in a Petri dish for 72 hours; and exposed to the vapor of 3 mL of DADS in a Petri dish for 72 hours. FIG. 17 quantifies the infection results. […] Both AITC and DADS vapor were effective at controlling Bc mold. Treatment with AITC can potentially lead to changes in color or flavor of the grapes.

In data set [1] the test system is Penicillium italicum (Pi). Nature of the data set: Antifungal activity of vapor against Penicillium italicum in wounded, infected mandarins. The note with it: 72 hours vapor of 3 mL in a Petri dish. As for the experimental part: Example 2. The antifungal activity of allyl isothiocyanate (AITC) and DADS vapor was tested against Pd and Penicillium italicum (Pi) in mandarins. All samples were wounded by puncturing with a screw. Mandarins were infected by dispensing either 1000 Pd spores or 1000 Pi spores suspended in 10 μL into the wound. The test groups consisted of mandarins that were: uninfected and untreated; uninfected and treated by dipping in a solution of 1 g/L of imazalil; infected with Pd and untreated; infected with Pd and exposed to AITC; infected with Pd and exposed to DADS; infected with Pi and untreated; infected with Pi and exposed to AITC; and infected with Pi and exposed to DADS. Exposure to AITC or DADS consisted of exposing the mandarins for 72 hours to the vapor of 3 mL of the respective compound dispensed in a Petri dish. […] DADS vapor reduced the incidence of Pd mold by 85% and Pi mold by 30% compared to the respective untreated/infected test groups. […] Both AITC and DADS were effective at preventing fungal growth. The inhibition from AITC was approximately 100%, with some changes in visible appearance.

The test system of the next data set is Botrytis cinerea (Bc). Nature of the data set: Antifungal activity of vapor against Botrytis cinerea in grapes. The conditions noted are these: vapor of 3 mL in a Petri dish for 72 hours. As to the method:
as §1

Data set [2] relates to Penicillium digitatum (Pd). The experiment in a line: Antifungal activity of vapor against Penicillium digitatum in wounded, infected mandarins. The note with it: for effect on Pd mold: airtight container, assessed after 6 days. As for the experimental part:
Example 4. The antifungal activity of a range of AITC vapor concentrations was tested against Pd in mandarins. All mandarins were wounded by puncturing with a screw and infected by dispensing 1000 Pd spores suspended in 10 μL of water in each wound. The fruit was then placed in an airtight container, a range of AITC volumes were disposed onto a Whatman filter paper disc, the disc was suspended in front of a battery-powered fan, and the container closed for 18 hours. The mandarins were then left at ambient temperature and high humidity for 6 days. The test groups were mandarins that were infected and untreated, and infected and treated with 62.5 μL, 125 μL, 250 μL, and 500 μL on the filter paper disc. […] FIG. 6 is a bar graph showing incidence (% infected) for the test groups.
Example 5. The antifungal activity of a range of AITC vapor exposure times was tested to determine the effects against Pd in mandarins. All samples were wounded by puncturing with a screw. Mandarins were infected by dispensing 1000 Pd spores suspended in 10 μL of water in the wound. The fruit was then placed in an airtight container, 125 μL of AITC was dispensed onto a Whatman filter paper disc, the disc suspended in front of a battery-powered fan, and the container closed for 15 minutes to 2 hours. The test groups were then left at ambient temperature, high humidity, and assessed for Pd mold after 6 days. The test groups consisted of mandarins that were: uninfected and untreated; infected and untreated; infected and treated with 0.5 g/L imazalil; infected, treated with 125 μL of AITC on the filter paper, and exposed to the vapor for 15 minutes, 30 minutes, 1 hour, and 2 hours.

Setting [3] is: mandarins, 72 hours vapor of 3 mL in a Petri dish.

For the compound `C=CCN=C=S` [AITC, allyl isothiocyanate], the “visible appearance of treated fruit” value with grapes (in vivo) was “darkening of the fruit”. Further, the “inhibition of fungal growth” value in data set [1] (mandarins infected with Pi) is listed as “approximately 100%”; in data set [2] (mandarins infected with Pd, 72 hours vapor of 3 mL in a Petri dish) it was “approximately 100%”. Further, in data set [1] (mandarins), the “effect on Pi infection” value is on record as “substantially prevented”. The “effect on Bc mold” value in the data set with Botrytis cinerea (Bc) is on record as “substantially eliminated Bc mold”. In addition, the “effect on Pd mold” value in data set [2] (mandarins, 125 μL on filter paper (730 ppm), 30 min exposure) is “greatly reduced severity of Pd mold infection”; in data set [2] (mandarins, 125 μL on filter paper, 15 minute exposure), “little effect on Pd mold”; in data set [2] (mandarins, 125 μL on filter paper, 1 hour exposure) it was “greatly reduced severity and incidence of Pd mold”. Moreover, the “effect on Pd infection” value in data set [2] (mandarins, 125 μL on filter paper disc, airtight container with fan, 18 hours, then 6 days) is “substantially prevented the growth mold”; in data set [2] (mandarins, 250 μL on filter paper disc, airtight container with fan, 18 hours, then 6 days), “substantially prevented the growth mold”; in data set [2] (mandarins, vapor of 500 μL in a Petri dish for 72 hours), “substantially prevented Pd infections”. Also, in data set [2] (setting [3]), the “effect on Pd infection / mold growth” value was “substantially prevented”.

As for `C=CCSSCC=C` [DADS, diallyl disulfide], the “visible appearance of treated fruit” value in the data set with grapes (grapes, vapor of 3 mL in a Petri dish for 72 hours) is “appeared unchanged”. Also, in data set [1] (mandarins), the “reduction of the incidence of Pi mold compared to the untreated/infected test group” value was 30%. Further, the “effect on Bc mold” value in the data set on Botrytis cinerea (Bc) is reported as “substantially eliminated Bc mold”. Further, the “effect on Pd infection / mold growth” value in data set [2] (setting [3]) is on record as “substantially prevents Pd mold growth”. Also, the “reduction of the incidence of Pd mold compared to the untreated samples” value in data set [2] (mandarins, exposed for 72 hours to the vapor of 3 mL in a Petri dish) is on record as 85%.
